Where a name gives a salt, the structure may show the parent alone.
Molecular target: CDK7/CycH/MAT1 (Homo sapiens, UniProt P50613)
Experiment: Kinase Glo (ADP-Glo) biochemical assay, CDK7
Conditions: CDK7/CycH/MAT1 40 ng, ATP 1 μM, 60 minutes at RT, luminescence
Description: Materials: • Assay Buffer: 50 mM HEPES, 3 mM MgCl2, 3 mM MnCl2, 1 mM DTT, 3 μM Na3VO4, pH 7.5 • Substrate RB • CTF Peptide (ProQinase #: 0040-0000-6) • Enzymes • CDK7/CycH/MAT1 (ProQinase #: 0366-0360-4) • ADP-Glo™ Assay (Promega #: V9101) • ATP: 10 mM • ADP-Glo™ Reagent • Kinase Detection Reagent • 384-well white assay plates
A ten point serial dilution of compound was prepared at 5X concentration in assay buffer with the final assay concentrations starting at 30 μM, 10 μM, 3 μM, 1 μM . . . 0 μM. Enzyme, substrate, and ATP were used at 40 ng, 200 ng (or 400 ng)* and 1 μM, respectively. The assay plate was set up by mixing the components in a total reaction volume of 10 μL per well. The plate was centrifuged gently for 10 seconds and incubated at room temperature (RT) for 60 minutes in the dark. The ADP-Glo Reagent and kinase detection reagent were added and incubated as recommended. The reaction was quantified by measuring luminescence on the Perkin Elmer Envision plate reader.

Chain of CDK7/CycH/MAT1 (P50613 whole entry): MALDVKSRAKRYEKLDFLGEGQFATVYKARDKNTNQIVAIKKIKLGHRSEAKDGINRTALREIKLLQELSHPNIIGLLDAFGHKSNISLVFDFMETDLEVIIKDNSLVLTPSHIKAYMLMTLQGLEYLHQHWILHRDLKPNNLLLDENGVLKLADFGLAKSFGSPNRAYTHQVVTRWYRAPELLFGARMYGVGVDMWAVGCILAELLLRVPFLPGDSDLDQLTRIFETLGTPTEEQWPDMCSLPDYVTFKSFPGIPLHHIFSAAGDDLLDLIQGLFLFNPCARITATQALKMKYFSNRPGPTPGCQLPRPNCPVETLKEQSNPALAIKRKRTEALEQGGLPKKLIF
Chain of CDK7/CycH/MAT1 (P51946 whole entry partner): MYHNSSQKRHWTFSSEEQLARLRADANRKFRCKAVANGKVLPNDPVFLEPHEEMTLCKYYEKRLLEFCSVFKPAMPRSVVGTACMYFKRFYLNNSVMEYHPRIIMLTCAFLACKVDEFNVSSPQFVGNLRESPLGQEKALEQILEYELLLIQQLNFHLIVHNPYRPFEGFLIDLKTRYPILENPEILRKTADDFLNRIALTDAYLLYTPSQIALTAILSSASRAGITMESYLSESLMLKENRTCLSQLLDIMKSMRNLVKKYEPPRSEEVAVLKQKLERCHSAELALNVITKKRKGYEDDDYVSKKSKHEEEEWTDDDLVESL
Chain of CDK7/CycH/MAT1 (P51948 whole entry partner): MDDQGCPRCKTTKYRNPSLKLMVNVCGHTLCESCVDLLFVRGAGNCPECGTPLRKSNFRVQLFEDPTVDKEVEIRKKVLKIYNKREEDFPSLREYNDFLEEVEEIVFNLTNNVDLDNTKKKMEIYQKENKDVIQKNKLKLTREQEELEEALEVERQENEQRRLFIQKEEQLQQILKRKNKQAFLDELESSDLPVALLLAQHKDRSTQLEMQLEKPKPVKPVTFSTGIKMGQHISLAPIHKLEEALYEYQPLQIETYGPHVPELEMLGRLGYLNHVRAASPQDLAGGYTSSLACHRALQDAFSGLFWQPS

## CN1CCC[C@@H](Oc2cc(NCc3ccccc3)c3ncc(C4CC4)n3n2)C1 [Compound 9, (R)—N-benzyl-3-cyclopropyl-6-((1-methylpiperidin-3-yl)oxy)imidazo[1,2-b]pyridazin-8-amine]
  IC50: 100 to 1000 nM

## CN1CCC(Oc2cc(NCc3ccccc3)c3ncc(C4CC4)n3n2)CC1 [Compound 15, N-benzyl-3-cyclopropyl-6-((1-methylpiperidin-4-yl)oxy)imidazo [1,2-b] pyridazin-8-amine]
  IC50: 100 to 1000 nM

## CC(C)c1cnc2c(NCc3cccc(C(F)(F)F)c3)cc(SC3CCNCC3)nn12 [Compound 55, 3-isopropyl-6-(piperidin-4-ylthio)-N-(3-(trifluoromethyl)benzyl)imidazo[1,2-b]pyridazin-8-amine hydrochloride]
  IC50: < 100 nM

## CN1CCC[C@H](Nc2cc(NCc3ccccc3)c3ncc(C4CC4)n3n2)C1 [Compound 16, (S)-N8-benzyl-3-cyclopropyl-N6-(1-methylpiperidin-3-yl)imidazo[1,2-b]pyridazine-6,8-diamine]
  IC50: 100 to 1000 nM

## CN1CC[C@@H](Oc2cc(Nc3cccc(F)c3)c3ncc(C4CC4)n3n2)C1 [Compound 3, (R)-3-cyclopropyl-N-(3-fluorophenyl)-6-((1-methylpyrrolidin-3-yl)oxy)imidazo[1,2-b]pyridazin-8-amine]
  IC50: 100 to 1000 nM

## CC(C)c1cnc2c(NCc3ccccc3-n3cccn3)nc(SC3CCCNC3)cn12 (stereo not drawn) [Compound 68, N-(2-(1H-pyrazol-1-yl)benzyl)-3-isopropyl-6-(piperidin-3-ylthio)imidazo[1,2-α]pyrazin-8-amine hydrochloride]
  IC50: < 100 nM

## CC(C)c1cnc2c(N[C@@H](C)c3ccccc3)cc(NC3CCNCC3)nn12 [Compound 29, (S)-3-isopropyl-N8-(1-phenylethyl)-N6-(piperidin-4-yl)imidazo[1,2-b]pyridazine-6,8-diamine hydrochloride]
  IC50: 100 to 1000 nM

## CC(C)c1cnc2c(NCc3ccccc3OC(F)(F)F)cc(OC3CCNCC3F)nn12 (stereo not drawn) [Compound 69, 6-((3-fluoropiperidin-4-yl)oxy)-3-isopropyl-N-(2-(trifluoromethoxy)benzyl)imidazo[1,2-b]pyridazin-8-amine hydrochloride]
  IC50: 100 to 1000 nM

## CC(C)c1cnc2c(NCc3cccc(OC(F)(F)F)c3)cc(SC3CCNCC3)nn12 [Compound 54, 3-isopropyl-6-(piperidin-4-ylthio)-N-(3-(trifluoromethoxy)benzyl)imidazo[1,2-b]pyridazin-8-amine hydrochloride]
  IC50: < 100 nM

## CC(C)Oc1ccccc1CNc1cc(SC2CCNCC2)nn2c(C(C)C)cnc12 [Compound 67, N-(2-isopropoxybenzyl)-3-isopropyl-6-(piperidin-4-ylthio)imidazo[1,2-b]pyridazin-8-amine hydrochloride]
  IC50: < 100 nM

## c1ccc(CNc2nc(SC3CCNCC3)cn3c(C4CC4)cnc23)cc1 [Compound 21, N-benzyl-3-cyclopropyl-6-(piperidin-4-ylthio)imidazo[1,2-α]pyrazin-8-amine formate salt]
  IC50: 100 to 1000 nM

## CC(C)c1cnc2c(NCc3ccccc3OC(F)(F)F)cc(OC[C@H]3CNCCO3)nn12 [Compound 47, (R)-3-isopropyl-6-(morpholin-2-ylmethoxy)-N-(2-(trifluoromethoxy)benzyl)imidazo[1,2-b]pyridazin-8-amine hydrochloride]
  IC50: 100 to 1000 nM

## COc1cc(F)ccc1CNc1cc(SC2CCNCC2)nn2c(C(C)C)cnc12 [Compound 72, N-(4-fluoro-2-methoxybenzyl)-3-isopropyl-6-(piperidin-4-ylthio)imidazo[1,2-b]pyridazin-8-amine hydrochloride]
  IC50: < 100 nM

## c1ccc(CNc2cc(OC3CCNCC3)nn3c(C4CC4)cnc23)cc1 [Compound 14, N-benzyl-3-cyclopropyl-6-(piperidin-4-yloxy)imidazo[1,2-b]pyridazin-8-amine]
  IC50: 100 to 1000 nM

## Fc1cccc(Nc2cc(O[C@H]3CCCNC3)nn3c(C(F)(F)F)cnc23)c1 [Compound 82, (S)-N-(3-fluorophenyl)-6-(piperidin-3-yloxy)-3-(trifluoromethyl)imidazo[1,2-b]pyridazin-8-amine hydrochloride]
  IC50: < 100 nM

## c1ccc(CNc2cc(SC3CCNCC3)nn3c(C4CC4)cnc23)cc1 [Compound 18, N-benzyl-3-cyclopropyl-6-(piperidin-4-ylthio)imidazo[1,2-b]pyridazin-8-amine hydrochloride]
  IC50: < 100 nM

## c1ccc(CNc2cc(NCC3CC4(CCNCC4)O3)nn3c(C4CC4)cnc23)cc1 (stereo not drawn) [Compound 17, N6-((1-oxa-7-azaspiro[3.5]nonan-2-yl)methyl)-N8-benzyl-3-cyclopropylimidazo[1,2-b]pyridazine-6,8-diamine]
  IC50: 100 to 1000 nM

## CN1CC[C@@H](Oc2cc(NCc3ccccc3)c3ncc(C4CC4)n3n2)C1 [Compound 10, (R)—N-benzyl-3-cyclopropyl-6-((1-methylpyrrolidin-3-yl)oxy)imidazo[1,2-b]pyridazin-8-amine]
  IC50: 100 to 1000 nM

## c1ccc(CNc2cc(O[C@@H]3CCCNC3)nn3c(C4CC4)cnc23)cc1 [Compound 13, (R)—N-benzyl-3-cyclopropyl-6-(piperidin-3-yloxy)imidazo[1,2-b]pyridazin-8-amine]
  IC50: 100 to 1000 nM

## CC(C)c1cnc2c(Nc3ccccc3C(F)(F)F)cc(SC3CCCNC3)nn12 (stereo not drawn) [Compound 61, 3-isopropyl-6-(piperidin-3-ylthio)-N-(2-(trifluoromethyl)phenyl) imidazo[1,2-b]pyridazin-8-amine hydrochloride]
  IC50: 100 to 1000 nM

## COc1ccccc1CNc1cc(SC2CCNCC2(F)F)nn2c(C(C)C)cnc12 (stereo not drawn) [Compound 75, 6-((3,3-difluoropiperidin-4-yl)thio)-3-isopropyl-N-(2-methoxybenzyl)imidazo[1,2-b]pyridazin-8-amine hydrochloride]
  IC50: 100 to 1000 nM

## c1ccc(CNc2cc(NCCC3CNCCO3)nn3c(C4CC4)cnc23)cc1 (stereo not drawn) [Compound 19, N8-benzyl-3-cyclopropyl-N6-(2-(morpholin-2-yl)ethyl)imidazo[1,2-b]pyridazine-6,8-diamine formate]
  IC50: 100 to 1000 nM

## COc1cc(F)ccc1CNc1cc(SC2CCCNC2)nn2c(C(C)C)cnc12 (stereo not drawn) [Compound 79, N-(4-fluoro-2-methoxybenzyl)-3-isopropyl-6-(piperidin-3-ylthio)imidazo[1,2-b]pyridazin-8-amine formate]
  IC50: 100 to 1000 nM

## c1ccc(CNc2nc(NC3CCNCC3)cn3c(C4CC4)cnc23)cc1 [Compound 31, N8-benzyl-3-cyclopropyl-N6-(piperidin-4-yl)imidazo[1,2-α]pyrazine-6,8-diamine hydrochloride]
  IC50: > 1000 nM

## CC(C)c1cnc2c(NCc3ccccc3OC(F)(F)F)cc(SC3CCNCC3(F)F)nn12 (stereo not drawn) [Compound 76, 6-((3,3-difluoropiperidin-4-yl)thio)-3-)isopropyl-N-(2-(trifluoromethoxy)benzyl)imidazo[1,2-b]pyridazin-8-amine hydrochloride]
  IC50: 100 to 1000 nM

## CC(C)c1cnc2c(NCc3ccc(F)cc3C(F)(F)F)cc(SC3CCNCC3)nn12 [Compound 80, N-(4-fluoro-2-(trifluoromethyl)benzyl)-3-isopropyl-6-(piperidin-4-ylthio)imidazo[1,2-b]pyridazin-8-amine hydrochloride]
  IC50: 100 to 1000 nM

## CCOc1ccccc1CNc1cc(SC2CCNCC2)nn2c(C(C)C)cnc12 [Compound 65, N-(2-ethoxybenzyl)-3-isopropyl-6-(piperidin-4-ylthio)imidazo[1,2-b]pyridazin-8-amine hydrochloride]
  IC50: < 100 nM
